System: 885724-159-R-J1-PDC complex spheroid viability
Assay: Anticancer human tumor 885724-159-R-J1-PDC patient-derived pancreatic adenocarcinoma cell line growth inhibition [POLQ]
Settings: for IC50: curve of first compound; for viability, T/C: stronger effect = lower value
Procedure: Multicellular complex tumor spheroid response to Polymerase (POL) inhibitors (novobiocin, ART-558, RP6685) in combination with a variety of drugs and investigational agents in selected tumor cell lines
The POL inhibitors (novobiocin, ART-558, and RP6685) were evaluated both individually and in combination with standard of care and investigational anticancer small molecules within a complex spheroid model of solid tumors. . Complex spheroids include a stromal component modeled by human endothelial cells (HUVEC) and fibroblasts modeled by human mesenchymal stem cells (MSCs). The concentration ranges selected for each drug and investigational agent were based upon clinically achievable concentrations if the clinical Cmax of the agent was known.
Compounds. The drugs and investigational agents: novobiocin (NSC847541), ART-558 (NSC835418), RP-6685 (NSC848927), peposertib (NSC802822), ceralasertib (NSC780249), elimusertib (NSC800525), camonsertib (NSC841442), AZD-1390 (NSC803789), olaparib (NSC753686), talazoparib (NSC767125), rucaparib (NSC756644), sotorasib (NSC818433), MRTX-1133 (NSC836407), SN-38 (NSC673596), topotecan (NSC609699), epotoside (NSC141540), doxorubicin (NSC123127), gemcitabine (NSC613327), 5-fluorouracil (NSC19893), paclitaxel (NSC125973), vemurafenib (NSC761431), MSA-2 (NSC828583), SN-011 (NSC837082), adavosertib (NSC754352), prexasertib (NSC758257), carboplatin (NSC241240) and oxaliplatin (NSC266046), were obtained from the National Cancer Institute (NCI) Developmental Therapeutics Program Chemical Repository (21). The FDA-approved anticancer drug set is available from the Developmental Therapeutics Program at https://dtp.cancer.gov/organization/dscb/obtaining/. […] The stock solutions were prepared in dimethyl sulfoxide (DMSO, Sigma-Aldrich, St. Louis, MO, cat. D2650), except for the platinum compounds which were prepared in saline (Quality Biological, Gaithersburg, MD, cat. 114-055-101), at 800-fold the tested concentration and stored at -70 degrees C prior to their use. All drugs and investigational agents were tested over a range starting from a high concentration at or near the clinical Cmax and decreasing in half-log increments. If the clinical Cmax for an agent had not been determined, the highest concentration tested was 10 microM, except for SN-38, which was tested at a high concentration of 1 microM.
Cell Culture. All cells were maintained in an incubator at 37 degrees C and 5% CO2 with 95% humidity. The PDC lines were cultured according to standard operating procedures established by the NCI PDMR (https://pdmr.cancer.gov). Table 3 of the manuscript, lists the cell lines along with the number of the three cell types plated to form the mct-spheroids and media for tumor cell growth. After thawing, all PDC lines, except 997537-175-T-J1-PDC and 415267-285-R-J2-PDC, were cultured in Matrigel-coated flasks prepared with a working solution of 1X Ham's F-12 nutrient mix, without supplementation (Thermo Fisher Scientific, cat. 11765054), 100 U/mL penicillin-streptomycin (Thermo Fisher Scientific, cat. 15140122), and 2.5% Matrigel (Corning Inc., Corning, NY, cat. 354248) for the first three passages. The two PDC lines 997537-175-T-J1-PDC and 415267-285-R-J2-PDC were cultured on uncoated flasks. The 857933-349-R-J2-PDC line was cultured in 6C/Colon 1B media containing advanced DMEM/F-12 (Thermo Fisher Scientific, cat. 12634028), 10 mM HEPES (Thermo Fisher Scientific, cat. 15630080), 1X GlutaMAX supplement (Thermo Fisher Scientific, cat. 35050061), 0.1 mg/mL primocin (InvivoGen, San Diego, CA, cat. ant-pm-2), 10% defined fetal bovine serum, heat inactivated (HyClone Laboratories Inc., Logan, UT, cat. SH30070.03HI), 50% L-WRN conditioned media (ATCC, cat. CRL-3276), 1.25 mM N-Acetyl-L-cysteine (Sigma-Aldrich, cat. A9165), 10 mM nicotinamide (Sigma-Aldrich, cat. N0636), 1X B-27 supplement (Thermo Fisher Scientific, cat. 17504044), 1X N-2 supplement (Thermo Fisher Scientific, cat. […]
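Note: spheroids exposed to compounds for 7 days.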

With CCc1cc2c(N3CCc4c(cc(Cn5ccnc5)cc4-c4cn(C)nc4C(F)(F)F)C3=O)cc(C)nc2c(OC)n1 + COC1C(OC(N)=O)C(O)C(Oc2ccc3c(O)c(NC(=O)c4ccc(O)c(CC=C(C)C)c4)c(=O)oc3c2C)OC1(C)C the IC50 (second compound 0.0316 µM) was greater than 10 µM, the IC50 (second compound 0.1 µM) was greater than 10 µM and the IC50 (second compound 0.316 µM) was greater than 10 µM. The IC50 (second compound 1 µM) was greater than 10 µM, the IC50 (second compound 3.16 µM) was greater than 10 µM and the IC50 (second compound 10 µM) was greater than 10 µM. The viability, T/C (second compound 0.0316 µM, first compound 0.0316 µM) was 87.4%, the viability, T/C (second compound 0.0316 µM, first compound 0.1 µM) was 79.7% and the viability, T/C (second compound 0.0316 µM, first compound 0.316 µM) was 75.3%. It also gave a viability, T/C (second compound 0.0316 µM, first compound 1 µM) of 68.9%, a viability, T/C (second compound 0.0316 µM, first compound 3.16 µM) of 84.7% and a viability, T/C (second compound 0.0316 µM, first compound 10 µM) of 66.2%. The viability, T/C (second compound 0.1 µM, first compound 0.0316 µM) was 89%, the viability, T/C (second compound 0.1 µM, first compound 0.1 µM) was 78.6% and the viability, T/C (second compound 0.1 µM, first compound 0.316 µM) was 77%. For the same compound, the viability, T/C (second compound 0.1 µM, first compound 1 µM) was 77.1%, the viability, T/C (second compound 0.1 µM, first compound 3.16 µM) was 69.7% and the viability, T/C (second compound 0.1 µM, first compound 10 µM) was 70.4%. It also gave a viability, T/C (second compound 0.316 µM, first compound 0.0316 µM) of 88.7%, a viability, T/C (second compound 0.316 µM, first compound 0.1 µM) of 71.8% and a viability, T/C (second compound 0.316 µM, first compound 0.316 µM) of 90.4%. It also gave a viability, T/C (second compound 0.316 µM, first compound 1 µM) of 75.4%, a viability, T/C (second compound 0.316 µM, first compound 3.16 µM) of 79.2% and a viability, T/C (second compound 0.316 µM, first compound 10 µM) of 67.6%. The viability, T/C (second compound 1 µM, first compound 0.0316 µM) was 80%, the viability, T/C (second compound 1 µM, first compound 0.1 µM) was 73.5% and the viability, T/C (second compound 1 µM, first compound 0.316 µM) was 79.9%. The viability, T/C (second compound 1 µM, first compound 1 µM) was 82.5%, the viability, T/C (second compound 1 µM, first compound 3.16 µM) was 74.5% and the viability, T/C (second compound 1 µM, first compound 10 µM) was 71.9%. The viability, T/C (second compound 3.16 µM, first compound 0.0316 µM) was 80.3%, the viability, T/C (second compound 3.16 µM, first compound 0.1 µM) was 72.9% and the viability, T/C (second compound 3.16 µM, first compound 0.316 µM) was 82.6%. It also gave a viability, T/C (second compound 3.16 µM, first compound 1 µM) of 76.7%, a viability, T/C (second compound 3.16 µM, first compound 3.16 µM) of 80.1% and a viability, T/C (second compound 3.16 µM, first compound 10 µM) of 75.2%. The viability, T/C (second compound 10 µM, first compound 0.0316 µM) was 78.4%, the viability, T/C (second compound 10 µM, first compound 0.1 µM) was 80.9% and the viability, T/C (second compound 10 µM, first compound 0.316 µM) was 77.2%. It also gave a viability, T/C (second compound 10 µM, first compound 1 µM) of 75.1%, a viability, T/C (second compound 10 µM, first compound 3.16 µM) of 75.9% and a viability, T/C (second compound 10 µM, first compound 10 µM) of 72%.

Source: PubChem BioAssay AID1963832 (Molecular Pharmacology Branch, DTP, NCI, 2024)
